Data: patent US8742110B2, “Spiroxazolidinone compounds” (Merck Sharp & Dohme Corp., priority 2010, dated 2014)
Structures can show the parent of a compound that is named as a salt.

Biological target: SSTR5 (Homo sapiens (Human), UniProt P35346)
Test: SSTR5 binding assay
Details: CHO-K1 membranes expressing cloned human SSTR5
How it was run: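 Competition binding on membranes from CHO-K1 cells stably expressing cloned human receptor, using radiolabeled somatostatin in 50 mM Tris-HCl pH 7.8 with EGTA, MgCl2 and protease inhibitors. Unlabeled compounds tested from 0.01 nM to 10,000 nM.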

SSTR5, sequence (P35346 whole entry): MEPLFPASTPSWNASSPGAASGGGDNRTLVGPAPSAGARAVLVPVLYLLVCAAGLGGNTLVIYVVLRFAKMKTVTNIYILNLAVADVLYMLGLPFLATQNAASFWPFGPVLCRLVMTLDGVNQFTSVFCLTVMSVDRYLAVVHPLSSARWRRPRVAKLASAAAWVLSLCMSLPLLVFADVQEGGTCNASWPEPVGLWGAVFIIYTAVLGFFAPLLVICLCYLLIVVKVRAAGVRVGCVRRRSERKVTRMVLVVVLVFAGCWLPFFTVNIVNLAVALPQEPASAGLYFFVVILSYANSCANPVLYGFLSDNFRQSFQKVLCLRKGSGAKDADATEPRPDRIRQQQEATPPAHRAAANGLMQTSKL

| IC50 | SMILES |
| --- | --- |
| 0.272 nM | CC(C)Oc1ccc(-c2cc(F)c(F)cc2F)c(CN2CCC3(CC2)CN(c2ccc(C(=O)O)cc2)C(=O)O3)c1 [Example 4-16, 4-(2-Oxo-8-{[2′,4′,5′-trifluoro-4-(propan-2-yloxy)biphenyl-2-yl]methyl}-1-oxa-3,8-diazaspiro[4.5]dec-3-yl)benzoic acid, TFA salt] |
| 0.165 nM | O=C(O)c1ccc(N2CC3(CCN(Cc4cc(OC(F)(F)F)ccc4-c4ccc(F)c(F)c4F)CC3)OC2=O)cc1 [Example 4-17, 4-(2-Oxo-8-{[2′,3′,4′-trifluoro-4-(trifluoromethoxy)biphenyl-2-yl]methyl}-1-oxa-3,8-diazaspiro[4.5]dec-3-yl)benzoic acid, TFA salt] |
| 0.228 nM | CCOc1cc(CN2CCC3(CC2)CN(c2ccc(C(=O)O)c(OC)c2)C(=O)O3)c(-c2ccc(F)c(F)c2F)cc1C [Example 4-18, 4-{8-[(4-Ethoxy-2′,3′,4′-trifluoro-5-methylbiphenyl-2-yl)methyl]-2-oxo-1-oxa-3,8-diazaspiro[4.5]dec-3-yl}-2-methoxybenzoic acid, TFA salt] |
| 0.243 nM | O=C(O)c1ccc(N2CC3(CCN(Cc4cc5c(cc4-c4cc(F)c(F)cc4F)CCC5)CC3)OC2=O)cc1 [Example 4-19, 4-(2-Oxo-8-{[6-(2,4,5-trifluorophenyl)-2,3-dihydro-1H-inden-5-yl]methyl}-1-oxa-3,8-diazaspiro[4.5]dec-3-yl)benzoic acid, TFA salt] |
| 0.632 nM | CCOc1cc(CN2CCC3(CC2)CN(c2ccc(C(=O)O)cc2)C(=O)O3)c(-c2ccc(C(F)(F)F)nc2)cc1C [Example 4-20, 4-(8-{5-Ethoxy-4-methyl-2-[6-(trifluoromethyl)pyridin-3-yl]benzyl}-2-oxo-1-oxa-3,8-diazaspiro[4.5]dec-3-yl)benzoic acid, TFA salt] |
| 0.397 nM | CCOc1cc(CN2CCC3(CC2)CN(c2ccc(C(=O)O)cc2F)C(=O)O3)c(-c2ccc(F)c(F)c2F)cc1C [Example 4-21, 4-{8-[(4-Ethoxy-2′,3′,4′-trifluoro-5-methylbiphenyl-2-yl)methyl]-2-oxo-1-oxa-3,8-diazaspiro[4.5]dec-3-yl}-3-fluorobenzoic acid, TFA salt] |
| 0.468 nM | CCOc1cc(CN2CCC3(CC2)CN(c2ccc(C(=O)O)cc2Cl)C(=O)O3)c(-c2ccc(F)c(F)c2F)cc1C [Example 4-22, 3-Chloro-4-{8-[(4-ethoxy-2′,3′,4′-trifluoro-5-methylbiphenyl-2-yl)methyl]-2-oxo-1-oxa-3,8-diazaspiro[4.5]dec-3-yl}benzoic acid, TFA salt] |
| 2.3 nM | Cc1ccc(-c2cc(C)c(Cl)cc2CN2CCC3(CC2)CN(c2ccc(C(=O)O)cc2)C(=O)O3)cn1 [Example 4-23, 4-{8-[5-Chloro-4-methyl-2-(6-methylpyridin-3-yl)benzyl]-2-oxo-1-oxa-3,8-diazaspiro[4.5]dec-3-yl}benzoic acid, TFA salt] |
| 1.13 nM | Cc1cc(-c2cc(F)c(F)cc2F)c(CN2CCC3(CC2)CN(c2ccc(C(=O)O)cc2)C(=O)O3)cc1Cl [Example 4-24, 4-{8-[(4-Chloro-2′,4′,5′-trifluoro-5-methylbiphenyl-2-yl)methyl]-2-oxo-1-oxa-3,8-diazaspiro[4.5]dec-3-yl}benzoic acid, TFA salt] |
| 1.31 nM | Cc1cc(-c2ccc(F)nc2)c(CN2CCC3(CC2)CN(c2ccc(C(=O)O)cc2)C(=O)O3)cc1Cl [Example 4-25, 4-{8-[5-Chloro-2-(6-fluoropyridin-3-yl)-4-methylbenzyl]-2-oxo-1-oxa-3,8-diazaspiro[4.5]dec-3-yl}benzoic acid, TFA salt] |
| 9.35 nM | Cc1cc(-c2ccc(C(F)(F)F)nc2)c(CN2CCC3(CC2)CN(c2ccc(C(=O)O)cc2)C(=O)O3)cc1Cl [Example 4-26, 4-(8-{5-Chloro-4-methyl-2-[6-(trifluoromethyl)pyridin-3-yl]benzyl}-2-oxo-1-oxa-3,8-diazaspiro[4.5]dec-3-yl)benzoic acid, TFA salt] |
| 1.5 nM | CCOc1ccc(-c2nccs2)c(CN2CCC3(CC2)CN(c2ccc(C(=O)O)cc2)C(=O)O3)c1 [Example 4-27, 4-{8-[5-Ethoxy-2-(1,3-thiazol-2-yl)benzyl]-2-oxo-1-oxa-3,8-diazaspiro[4.5]dec-3-yl}benzoic acid, TFA salt] |
| 0.395 nM | CCOc1cc(CN2CCC3(CC2)CN(c2ccc(C(=O)O)cc2)C(=O)O3)c(-n2cc(C)cn2)cc1C [Example 4-28, 4-{8-[5-Ethoxy-4-methyl-2-(4-methyl-1H-pyrazol-1-yl)benzyl]-2-oxo-1-oxa-3,8-diazaspiro[4.5]dec-3-yl}benzoic acid, TFA salt] |
| 2.38 nM | Cc1cc(CN2CCC3(CC2)CN(c2ccc(C(=O)O)cc2)C(=O)O3)cc2c1OCC2(C)C [Example 5-1, 4-{2-Oxo-8-[(3,3,7-trimethyl-2,3-dihydro-1-benzofuran-5-yl)methyl]-1-oxa-3,8-diazaspiro[4.5]dec-3-yl}benzoic acid, TFA salt] |
| 0.704 nM | CCOc1cc(CN2CCC3(CC2)CN(c2ccc(C(=O)O)cc2)C(=O)O3)cc2c(OC)cccc12 [Example 5-2, 4-{8-[(4-Ethoxy-8-methoxynaphthalen-2-yl)methyl]-2-oxo-1-oxa-3,8-diazaspiro[4.5]dec-3-yl}benzoic acid, TFA salt] |
| 0.98 nM | CCOc1cc(CN2CCC3(CC2)CN(c2ccc(C(=O)O)cc2)C(=O)O3)cc2c(OCC)cccc12 [Example 5-3, 4-{8-[(4,8-Diethoxynaphthalen-2-yl)methyl]-2-oxo-1-oxa-3,8-diazaspiro[4.5]dec-3-yl}benzoic acid, TFA salt] |
| 65.2 nM | CCOc1cc(C)nc2c(OCC)cc(CN3CCC4(CC3)CN(c3ccc(C(=O)O)cc3)C(=O)O4)cc12 [Example 5-4, 4-{8-[(4,8-Diethoxy-2-methylquinolin-6-yl)methyl]-2-oxo-1-oxa-3,8-diazaspiro[4.5]dec-3-yl}benzoic acid, TFA salt] |
| 0.65 nM | CCOc1cc(CN2CCC3(CC2)CN(c2ccc(C(=O)O)cc2)C(=O)O3)cc2c(OC)cc(Cl)cc12 [Example 5-5, 4-{8-[(6-Chloro-4-ethoxy-8-methoxynaphthalen-2-yl)methyl]-2-oxo-1-oxa-3,8-diazaspiro[4.5]dec-3-yl}benzoic acid, TFA salt] |
| 0.172 nM | COc1cc(CN2CCC3(CC2)CN(c2ccc(C(=O)O)cc2)C(=O)O3)cc2c(OC)cccc12 [Example 5-6, 4-{8-[(4,8-Dimethoxynaphthalen-2-yl)methyl]-2-oxo-1-oxa-3,8-diazaspiro[4.5]dec-3-yl}benzoic acid, TFA salt] |
| 0.233 nM | CCOc1cc(CN2CCC3(CC2)CN(c2ccc(C(=O)O)cc2)C(=O)O3)cc2c(OC)ccc(Cl)c12 [Example 5-7, 4-{8-[(5-Chloro-4-ethoxy-8-methoxynaphthalen-2-yl)methyl]-2-oxo-1-oxa-3,8-diazaspiro[4.5]dec-3-yl}benzoic acid, TFA salt] |
| 0.424 nM | CCOc1cc(CN2CCC3(CC2)CN(c2ccc(C(=O)O)cc2)C(=O)O3)cc2cnc(C(F)(F)F)cc12 [Example 5-8, 4-(8-{[5-Ethoxy-3-(trifluoromethyl)isoquinolin-7-yl]methyl}-2-oxo-1-oxa-3,8-diazaspiro[4.5]dec-3-yl)benzoic acid, TFA salt] |
| 11.3 nM | CCOc1cc(CN2CCC3(CC2)CN(c2ccc(C(=O)O)cc2)C(=O)O3)cc2ccc(C(F)(F)F)nc12 [Example 5-9, 4-(8-{[8-Ethoxy-2-(trifluoromethyl)quinolin-6-yl]methyl}-2-oxo-1-oxa-3,8-diazaspiro[4.5]dec-3-yl)benzoic acid, TFA salt] |
| 14 nM | CC1(C)CC(C)(C)c2cc(CN3CCC4(CC3)CN(c3ccc(C(=O)O)cc3)C(=O)O4)ccc2O1 [Example 5-11, 4-{2-Oxo-8-[(2,2,4,4-tetramethyl-3,4-dihydro-2H-chromen-6-yl)methyl]-1-oxa-3,8-diazaspiro[4.5]dec-3-yl}benzoic acid, TFA salt] |
| 29.4 nM | CC1(C)CCc2cc(CN3CCC4(CC3)CN(c3ccc(C(=O)O)cc3)C(=O)O4)ccc2O1 [Example 5-12, 4-{2-Oxo-8-[(2,2-dimethyl-3,4-dihydro-2H-chromen-6-yl)methyl]-1-oxa-3,8-diazaspiro[4.5]dec-3-yl}benzoic acid, TFA salt] |
| 0.317 nM | Cc1cc(CN2CCC3(CC2)CN(c2ccc(C(=O)O)cc2)C(=O)O3)cc2c1OCCC2(C)C [Example 5-13, 4-{2-Oxo-8-[(4,4,8-trimethyl-3,4-dihydro-2H-chromen-6-yl)methyl]-1-oxa-3,8-diazaspiro[4.5]dec-3-yl}benzoic acid, TFA salt] |
| 3.62 nM | CC1(C)CCOc2c(F)cc(CN3CCC4(CC3)CN(c3ccc(C(=O)O)cc3)C(=O)O4)cc21 [Example 5-14, 4-{8-[(8-Fluoro-4,4-dimethyl-3,4-dihydro-2H-chromen-6-yl)methyl]-2-oxo-1-oxa-3,8-diazaspiro[4.5]dec-3-yl}benzoic acid, TFA salt] |
| 1.25 nM | CC1(C)CCOc2c(Cl)cc(CN3CCC4(CC3)CN(c3ccc(C(=O)O)cc3)C(=O)O4)cc21 [Example 5-15, 4-{8-[(8-Chloro-4,4-dimethyl-3,4-dihydro-2H-chromen-6-yl)methyl]-2-oxo-1-oxa-3,8-diazaspiro[4.5]dec-3-yl}benzoic acid, TFA salt] |
| 1.81 nM | Cc1cc(CN2CCC3(CC2)CN(c2ccc(C(=O)O)cc2)C(=O)O3)cc2c1OCCC2C (stereo not drawn) [Example 5-16, 4-{8-[(4,8-Dimethyl-3,4-dihydro-2H-chromen-6-yl)methyl]-2-oxo-1-oxa-3,8-diazaspiro[4.5]dec-3-yl}benzoic acid, TFA salt] |
| 210 nM | O=C(O)c1ccc(N2CC3(CCN(Cc4ccc5c(c4)OCO5)CC3)OC2=O)cc1 [Example 5-17, 4-{8-[(1,3-Benzodioxol-5-yl)methyl]-2-oxo-1-oxa-3,8-diazaspiro[4.5]dec-3-yl}benzoic acid, TFA salt] |
| 45.3 nM | CC1(C)Cc2cc(CN3CCC4(CC3)CN(c3ccc(C(=O)O)cc3)C(=O)O4)ccc2O1 [Example 5-18, 4-{8-[(2,2-Dimethyl-2,3-dihydro-1-benzofuran-5-yl)methyl]-2-oxo-1-oxa-3,8-diazaspiro[4.5]dec-3-yl}benzoic acid, TFA salt] |
